Measured values published in patent US9902728B2, “Pyrrolo and pyrazolopyrimidines as ubiquitin-specific protease 7 inhibitors” (Forma Therapeutics, Inc., priority 2014, dated 2018).
Read-outs that look alike come from different tables or passages of the source.

Target: T1, USP7 (Homo sapiens, UniProt Q93009)
T1 construct: USP7, construct USP7 (208-1102) 6*His, Viva Biotech; 6xHis (C); purchased Viva Biotech
Assay: USP7 Assay A (Ubitquin-Rhodamine 110 Assay)
Type: biochemical
Settings: read-out: USP7_IC50
Procedure, shortened: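 Enzyme and compound sat together for 30 min before Ub-Rh110 was added, in buffer of 20 mM Tris-HCl (pH 8.0), 1 mM GSH, 0.03% BGG and 0.01% Triton X-100.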

[1] = USP7 activity in USP7 assay A and B (table does not say which assay per compound)
[2] = USP7 assay A and B (table does not say which assay per compound)

T1 sequence (Q93009 208-1102): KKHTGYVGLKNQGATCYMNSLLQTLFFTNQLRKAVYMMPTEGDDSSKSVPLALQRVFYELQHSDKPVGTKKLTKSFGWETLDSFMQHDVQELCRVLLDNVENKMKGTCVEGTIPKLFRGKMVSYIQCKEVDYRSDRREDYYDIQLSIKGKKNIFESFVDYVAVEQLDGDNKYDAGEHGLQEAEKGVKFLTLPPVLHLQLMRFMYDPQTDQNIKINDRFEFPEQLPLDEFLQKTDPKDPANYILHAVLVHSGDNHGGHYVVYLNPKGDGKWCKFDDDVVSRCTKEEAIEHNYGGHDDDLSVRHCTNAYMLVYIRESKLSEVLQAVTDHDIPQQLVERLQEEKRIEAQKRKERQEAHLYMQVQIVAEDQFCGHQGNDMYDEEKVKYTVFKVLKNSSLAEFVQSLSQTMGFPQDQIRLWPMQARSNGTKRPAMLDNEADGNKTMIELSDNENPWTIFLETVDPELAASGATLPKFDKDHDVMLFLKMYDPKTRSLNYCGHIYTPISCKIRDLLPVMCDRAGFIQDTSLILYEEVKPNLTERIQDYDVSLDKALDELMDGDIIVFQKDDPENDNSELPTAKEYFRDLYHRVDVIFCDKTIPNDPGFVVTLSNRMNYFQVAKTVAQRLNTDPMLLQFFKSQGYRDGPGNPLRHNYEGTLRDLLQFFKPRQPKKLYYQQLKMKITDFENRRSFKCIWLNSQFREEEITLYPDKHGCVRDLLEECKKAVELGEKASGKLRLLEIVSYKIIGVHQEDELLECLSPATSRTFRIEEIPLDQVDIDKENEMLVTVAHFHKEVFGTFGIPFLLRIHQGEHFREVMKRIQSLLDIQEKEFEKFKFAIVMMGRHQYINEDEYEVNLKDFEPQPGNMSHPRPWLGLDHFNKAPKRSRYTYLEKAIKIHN

| Compound | IC50 [1] [nM] | IC50 [2] [nM] |
| --- | --- | --- |
| CC1(C(=O)N2CCC(O)(Cn3cnc4c(cnn4-c4cccc(-n5ccc(F)n5)c4)c3=O)CC2)CC1 [Compound I-1042] | 200 to 1000 | – |
| O=C(C1CC1)N1CCC(O)(Cn2cnc3c(cnn3-c3ccc(NCC4CCOCC4)cc3)c2=O)CC1 [Compound I-1402] | – | 1000 to 10000 |
| O=C(C1CC1)N1CCC(O)(Cn2cnc3c(cnn3-c3ccc(Cl)cc3)c2=O)CC1 [Compound I-35] | – | 1000 to 10000 |
| CN1CCN(c2cccc(-n3ncc4c(=O)n(CC5(O)CCN(C(=O)C6(C)CC6)CC5)cnc43)c2)CC1C(F)F (stereo not drawn) [Compound I-1694] | < 200 | – |
| CC(CC(=O)N1CCC(O)(Cn2cnc3c(cnn3C)c2=O)CC1)c1ccc(F)cc1 (stereo not drawn) [Compound I-78] | – | 200 to 1000 |
| O=C(C[C@H](C(F)F)n1ccc(F)n1)N1CCC(O)(Cn2cnc3c(cnn3-c3ccc(F)cc3)c2=O)CC1 [Compound I-543] | 200 to 1000 | – |
| O=C(c1ccc(C2CC2)cc1)N1CCC(O)(Cn2cnc3c(cnn3-c3ccccc3)c2=O)CC1 [Compound I-156] | – | 200 to 1000 |
| O=C(C1CC1)N1CCC(O)(Cn2cnc3c(cnn3-c3cccc(N4CCCC4)c3)c2=O)CC1 [Compound I-1200] | – | 200 to 1000 |
| O=C(C1CC1)N1CCC(O)(Cn2cnc3c(cnn3-c3ccc(-c4cc(F)ccc4CO)cc3)c2=O)CC1 [Compound I-390] | – | 1000 to 10000 |
| O=C(c1ccc(F)cc1)N1CCC(O)(Cn2cnc3c(cnn3-c3cccc(OCC4CCOCC4)c3)c2=O)CC1 [Compound I-1325] | – | 1000 to 10000 |
| Cc1ccc(C(=O)N2CCC(O)(Cn3cnc4c(cnn4-c4ccccc4)c3=O)CC2)cc1Cl [Compound I-211] | – | 200 to 1000 |
| CN(C)C(=O)N1CCC(O)(Cn2cnc3c(cc(-c4ccccc4)n3-c3ccc(F)cc3)c2=O)CC1 [Compound I-706] | – | 1000 to 10000 |
| C[C@](O)(c1ccc(C(=O)N2CCC(O)(Cn3cnc4c(cnn4-c4ccc(F)cc4)c3=O)CC2)cc1)C(F)(F)F (single isomer, unassigned) [Compound I-528] | – | 1000 to 10000 |
| NCc1cnn(-c2ccc(C(=O)N3CCC(O)(Cn4cnc5c(cnn5-c5ccc(F)cc5)c4=O)CC3)cc2)c1 [Compound I-613] | 1000 to 10000 | – |
| CN1CCN(c2ccc(-n3ncc4c(=O)n(CC5(O)CCN(C(=O)C[C@H](C(F)F)n6cccn6)CC5)cnc43)cc2)CC1 [Compound I-826] | < 200 | – |
| Cc1nc(C)c(C(=O)N2CCC(O)(Cn3cnc4c(cnn4-c4ccccc4)c3=O)CC2)s1 [Compound I-230] | – | 1000 to 10000 |
| O=C(c1cc(Cl)ccc1Cl)N1CCC(O)(Cn2cnc3c(cnn3-c3ccccc3)c2=O)CC1 [Compound I-223] | – | 200 to 1000 |
| O=C(N1CCC(O)(Cn2cnc3c(cnn3-c3ccc(F)cc3)c2=O)CC1)C12CC(C(F)(F)F)(C1)C2 [Compound I-423] | – | 1000 to 10000 |
| O=C(c1ccc(-c2cnn(CCO)c2)cc1)N1CCC(O)(Cn2cnc3c(cnn3-c3ccc(F)cc3)c2=O)CC1 [Compound I-1006] | 1000 to 10000 | – |
| O=C(c1ccccc1)N1CCC(O)(Cn2cnc3c(cnn3-c3cccc(CO)c3)c2=O)CC1 [Compound I-281] | – | 1000 to 10000 |
| CC1(C(=O)N2CCC(O)(Cn3cnc4c(cnn4-c4cccc(N5CC(O)C5)c4)c3=O)CC2)CC1 [Compound I-1678] | 200 to 1000 | – |
| O=C(C1CCC(Oc2cccnc2F)CC1)N1CCC(O)(Cn2cnc3c(cnn3-c3ccccc3)c2=O)CC1 (stereo not drawn) [Compound I-1017] | 200 to 1000 | – |

| Compound | IC50 [1] [nM] | IC50 [2] [nM] |
| --- | --- | --- |
| CNC(=O)N1CCC(O)(Cn2cnc3c(cnn3-c3ccc(-c4ccc(F)cc4)cc3)c2=O)CC1 [Compound I-655] | – | 1000 to 10000 |
| CN(C)C(=O)N1CCC(O)(Cn2cnc3c(cnn3-c3ccc(N4CCN5CCCCC5C4)cc3)c2=O)CC1 (stereo not drawn) [Compound I-1525] | – | 1000 to 10000 |
| CC(CC(=O)N1CCC(O)(Cn2cnc3c(cnn3C)c2=O)CC1)n1cccc1 (stereo not drawn) [Compound I-105] | – | 200 to 1000 |
| Cn1nccc1O[C@H]1CC[C@H](C(=O)N2CCC(O)(Cn3cnc4c(ccn4-c4ccc(F)cc4)c3=O)CC2)CC1 [Compound I-794] | 200 to 1000 | – |
| Cc1ccc(-n2ncc3c(=O)n(CC4(O)CCN(C(=O)c5ccc(Cl)cc5N)CC4)cnc32)cc1 [Compound I-1140] | 200 to 1000 | – |
| O=C(C1CC(Nc2cccnc2)C1)N1CCC(O)(Cn2cnc3c(cnn3-c3ccc(F)cc3)c2=O)CC1 (stereo not drawn) [Compound I-1030] | 200 to 1000 | – |
| CC(=O)N1C[C@@H]2C[C@H]1CN2c1cccc(-n2ncc3c(=O)n(CC4(O)CCN(C(=O)C5(C)CC5)CC4)cnc32)c1 [Compound I-1702] | 200 to 1000 | – |
| O=C(c1ccc(F)cc1)N1CCC(O)(Cn2cnc3c(cnn3-c3ccc(-c4cnn(C5CCOCC5)c4)cc3)c2=O)CC1 [Compound I-1614] | 200 to 1000 | – |
| O=C(c1ccc(N2CCN3CCCC3C2)cc1)N1CCC(O)(Cn2cnc3c(cnn3-c3ccc(F)cc3)c2=O)CC1 (stereo not drawn) [Compound I-487] | 1000 to 10000 | – |
| CN(Cc1ccccc1)c1ccc(C(=O)N2CCC(O)(Cn3cnc4c(cnn4C)c3=O)CC2)cc1 [Compound I-119] | – | 200 to 1000 |
| Cn1ccc(NC2CCC(C(=O)N3CCC(O)(Cn4cnc5c(cnn5-c5ccc(F)cc5)c4=O)CC3)CC2)n1 (stereo not drawn) [Compound I-766] | 200 to 1000 | – |
| COc1cc(C(=O)N2CCC(O)(Cn3cnc4c(cnn4-c4ccccc4)c3=O)CC2)ccc1Cl [Compound I-226] | – | 1000 to 10000 |
| Cc1ncc(C(=O)N2CCC(O)(Cn3cnc4c(cnn4-c4ccc(C5CCC5)cc4)c3=O)CC2)o1 [Compound I-846] | 200 to 1000 | – |
| CN1CCN(c2ccc(-n3ncc4c(=O)n(CC5(O)CCN(C(=O)C6CC6)CC5)cnc43)cc2Cl)CC1 [Compound I-701] | – | 1000 to 10000 |
| O=C(Nc1nccs1)c1ccc(-n2ncc3c(=O)n(CC4(O)CCN(C(=O)C5CC5)CC4)cnc32)cc1 [Compound I-1493] | – | 1000 to 10000 |
| CC1(C(=O)N2CCC(O)(Cn3cnc4c(cnn4-c4ccc(N5CC(F)C5)cc4)c3=O)CC2)CC1 [Compound I-1679] | 200 to 1000 | – |
| Nc1cc(Cl)ccc1C(=O)N1CCC(O)(Cn2cnc3c(cnn3-c3ccc(F)cc3)c2=O)CC1 [Compound I-554] | 1000 to 10000 | – |
| CN(C)C(=O)Nc1cccc(-n2ncc3c(=O)n(CC4(O)CCN(C(=O)C5CC5)CC4)cnc32)c1 [Compound I-1501] | – | 1000 to 10000 |
| C[C@@]1(O)CCN(c2ccc(-n3ncc4c(=O)n(CC5(O)CCN(C(=O)C6CCCCC6)CC5)cnc43)cc2)C1 [Compound I-783] | 200 to 1000 | – |
| Cc1ccnc(-c2ccc(-n3ncc4c(=O)n(CC5(O)CCN(C(=O)C6CC6)CC5)cnc43)cc2)c1 [Compound I-1725] | 1000 to 10000 | – |
| CNC(=O)N1CCC(O)(Cn2cnc3c(cnn3-c3ccc(-c4ccccc4)cc3)c2=O)CC1 [Compound I-425] | – | 1000 to 10000 |
| NC(=O)COc1ccc(-n2ncc3c(=O)n(CC4(O)CCN(C(=O)c5ccc(F)cc5)CC4)cnc32)cc1 [Compound I-1307] | – | 1000 to 10000 |

| Compound | IC50 [1] [nM] | IC50 [2] [nM] |
| --- | --- | --- |
| CN1Cc2cn(-c3ccc(C(=O)N4CCC(O)(Cn5cnc6c(cnn6-c6ccc(F)cc6)c5=O)CC4)cc3)nc2C1 [Compound I-1001] | 1000 to 10000 | – |
| O=C(c1cnc(C2CC2)o1)N1CCC(O)(Cn2cnc3c(cnn3-c3ccc(OC4CCC(F)(F)CC4)cc3)c2=O)CC1 [Compound I-817] | < 200 | – |
| CC1(C(=O)N2CCC(O)(Cn3cnc4c(cnn4-c4ccc(N5CC(O)C5)cc4)c3=O)CC2)CC1 [Compound I-1677] | 200 to 1000 | – |
| CN(C)CCN(C)c1cccc(-n2ncc3c(=O)n(CC4(O)CCN(C(=O)c5ccc(F)cc5)CC4)cnc32)c1 [Compound I-823] | – | 200 to 1000 |
| O=C(C1CC1)N1CCC(O)(Cn2cnc3c(cnn3-c3ccccc3)c2=O)CC1 [Compound I-158] | – | 1000 to 10000 |
| C[C@H](CC(=O)N1CCC(O)(Cn2cnc3c(cnn3-c3ccc(-c4ccc(F)cc4)cc3)c2=O)CC1)n1cccn1 [Compound I-653] | – | 200 to 1000 |
| O=C(c1cnc(N2CCOCC2)o1)N1CCC(O)(Cn2cnc3c(cnn3-c3ccc(-c4ccccc4)cc3)c2=O)CC1 [Compound I-643] | 200 to 1000 | – |
| CN(C)C(=O)N1CCC(O)(Cn2cnc3c(cnn3-c3ccc(NCCN4CCCCC4)cc3)c2=O)CC1 [Compound I-1543] | – | 200 to 1000 |
| Cn1cc(-n2ncc3c(=O)n(CC4(O)CCN(C(=O)c5ccc(F)cc5)CC4)cnc32)cn1 [Compound I-703] | – | 1000 to 10000 |
| O=C(c1ccc(Cl)c(Cl)c1)N1CCC(O)(Cn2cnc3c(cnn3-c3ccccc3)c2=O)CC1 [Compound I-213] | – | 1000 to 10000 |
| O=C(c1cccn1Cc1c(F)cccc1F)N1CCC(O)(Cn2cnc3c(cnn3-c3ccc(F)cc3)c2=O)CC1 [Compound I-559] | 1000 to 10000 | – |
| O=C(C1CCC(OC2CCOCC2)CC1)N1CCC(O)(Cn2cnc3c(cnn3-c3ccc(F)cc3)c2=O)CC1 (stereo not drawn) [Compound I-925] | 1000 to 10000 | – |
| CC1(C(=O)N2CCC(O)(Cn3cnc4c(cnn4-c4cccc(N5CC(C6CCOCC6)C5)c4)c3=O)CC2)CC1 [Compound I-1732] | 200 to 1000 | – |
| Cn1cc(C(=O)N2CCC(O)(Cn3cnc4c(ccn4-c4ccc(F)cc4)c3=O)CC2)cn1 [Compound I-1078] | 200 to 1000 | – |
| O=C(C1CC1)N1CCC(O)(Cn2cnc3c(cnn3-c3cccnc3)c2=O)CC1 [Compound I-30] | – | 1000 to 10000 |
| CN(C)C(=O)N1CCC(O)(Cn2cnc3c(cnn3-c3ccc(F)cc3)c2=O)CC1 [Compound I-279] | – | 1000 to 10000 |
| O=C(c1ccc(F)cc1F)N1CCC(O)(Cn2cnc3c(cnn3-c3ccccc3)c2=O)CC1 [Compound I-209] | – | 1000 to 10000 |
| O=C(C1CCC(Nc2ccccc2)CC1)N1CCC(O)(Cn2cnc3c(cnn3-c3ccc(F)cc3)c2=O)CC1 (stereo not drawn) [Compound I-767] | 200 to 1000 | – |
| COc1ccc(C(=O)N2CCC(O)(C(C)n3cnc4c(cnn4-c4ccc(OC)cc4)c3=O)CC2)cc1 (stereo not drawn) [Compound I-625] | – | 1000 to 10000 |
| Cc1cnn(-c2ccc(-n3ncc4c(=O)n(CC5(O)CCN(C(=O)c6cnc(C7CC7)o6)CC5)cnc43)cc2)c1 [Compound I-779] | < 200 | – |
| CC(=O)N1C[C@@H]2C[C@H]1CN2c1ccc(-n2ncc3c(=O)n(CC4(O)CCN(C(=O)C5(C)CC5)CC4)cnc32)cc1 [Compound I-1747] | 200 to 1000 | – |
| CN(C)C(=O)N1CCC(O)(Cn2cnc3c(cnn3-c3ccc(-n4cc(C(F)(F)F)cn4)cc3)c2=O)CC1 [Compound I-1526] | – | 1000 to 10000 |
